Laboratory results reported in BindingDB's records for doi:10.7270/Q2QJ7FRJ (Nmmlsc, 2009).

Target: Cell division control protein 42 homolog (Homo sapiens, UniProt P60953)
Experiment: wildtype Cdc42 GTP-binding inhibitors, SAR follow-up, biochemical, pyrazoline analogs, multiplex bead flow cytometry, Ki (AID 2019)
[1] = inactive by the depositor's call

Cell division control protein 42 homolog, sequence (P60953 whole entry): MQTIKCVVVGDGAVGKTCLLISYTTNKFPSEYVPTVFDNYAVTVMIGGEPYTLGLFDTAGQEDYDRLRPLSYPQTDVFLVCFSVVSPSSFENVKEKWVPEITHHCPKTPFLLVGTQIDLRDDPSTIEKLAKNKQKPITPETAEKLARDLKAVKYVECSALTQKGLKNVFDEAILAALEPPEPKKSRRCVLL

Row | EC50 [1] [nM] | EC50 [nM] | SMILES
1 | 30000 |  | COc1ccc(C2CC(c3ccccc3)=NN2c2ccc(C(=O)O)cc2)cc1 (centres undefined) [UNM-0000306085]
2 |  | 2790 | COc1ccc(C2CC(c3ccccc3F)=NN2c2ccc(S(N)(=O)=O)cc2)cc1 (centres undefined) [UNM-0000306110]
3 |  | 3360 | COc1ccc(C2CC(c3ccccc3Br)=NN2c2ccc(S(N)(=O)=O)cc2)cc1 (centres undefined) [UNM-0000306112]
4 |  | 2070 | COc1ccc(C2CC(c3cccc(Br)c3)=NN2c2ccc(S(N)(=O)=O)cc2)cc1 (centres undefined) [UNM-0000306113]
5 |  | 1300 | COc1ccc(C2CC(c3cccc(Cl)c3)=NN2c2ccc(S(N)(=O)=O)cc2)cc1 (centres undefined) [UNM-0000306134]
6 |  | 2990 | COc1ccc(C2CC(c3ccc(Br)cc3)=NN2c2ccc(S(N)(=O)=O)cc2)cc1 (centres undefined) [UNM-0000306138]
7 | 4130 |  | COc1ccc(C2CC(c3ccccc3C)=NN2c2ccc(S(N)(=O)=O)cc2)cc1 (centres undefined) [UNM-0000306152]
8 |  | 3770 | COc1ccc(C2CC(c3cccc(C)c3)=NN2c2ccc(S(N)(=O)=O)cc2)cc1 (centres undefined) [UNM-0000306153]
9 |  | 1070 | NS(=O)(=O)c1ccc(N2N=C(c3ccccc3)CC2c2ccc(Br)cc2)cc1 (centres undefined) [UNM-0000306160]
